Results reported in patent publication US12692262B2, “Substituted ureas as orexin receptor agonists” (Merck Sharp & Dohme LLC, priority 2020, dated 2026).

Target: T1, human OX2R (Homo sapiens, UniProt O43614)
T1 construct: expressed in transfected cells; host or cells: CHO (Chinese hamster ovary) cells grown under G418 selection
T1 sequence (O43614 1-444): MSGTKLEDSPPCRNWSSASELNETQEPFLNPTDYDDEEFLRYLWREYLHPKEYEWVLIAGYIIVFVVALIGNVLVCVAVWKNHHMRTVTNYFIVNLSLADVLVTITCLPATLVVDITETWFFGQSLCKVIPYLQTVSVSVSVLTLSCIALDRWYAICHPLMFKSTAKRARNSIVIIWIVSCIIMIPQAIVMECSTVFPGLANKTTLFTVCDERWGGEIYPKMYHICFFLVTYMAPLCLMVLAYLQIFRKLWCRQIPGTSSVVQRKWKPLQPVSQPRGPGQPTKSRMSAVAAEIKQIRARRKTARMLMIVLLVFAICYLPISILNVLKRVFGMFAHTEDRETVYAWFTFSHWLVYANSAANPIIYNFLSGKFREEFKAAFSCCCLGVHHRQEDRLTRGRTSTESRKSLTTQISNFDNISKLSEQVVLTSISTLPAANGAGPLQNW
Test: IPOne (IP-1 accumulation) assay in CHO cells expressing human OX2R
Type: cell-based
Settings: for EC50: CHO cells expressing human OX2R, IP-One assay, 2 h incubation, four parameter logistic fit, read-out: OX2R Potency, EC50; for % of maximum agonist effect (relative to Orexin A): percent effect vs mean max effect of a reference compound at 1 uM (100% activity vs Orexin A), human OX2R
From the text: The utility of the compounds in accordance with the present invention as orexin receptor OX1R and/or OX2R agonists may be readily determined without undue experimentation by methodology well known in the art. Both the OX1R and/or OX2R G-coupled protein receptors (GPCRs) couple through the Gαq signaling pathway, which ultimately promotes calcium mobilization via inositol triphosphate (IP3) production. […] The utility of the compounds in accordance with the present invention as orexin receptor OX1R and/or OX2R agonists may be determined utilizing this assay.
In a typical experiment, the OX1 and OX2 receptor agonist activity is determined in accordance with the following general experimental method. Chinese hamster ovary (CHO) cells expressing human OX1R and/or the human OX2R were grown in Iscove's modified DMEM containing glutaMAX™, 1% G418, 100 U/mL penicillin, 100 μg/mL streptomycin and 10% heat-inactivated qualified fetal bovine serum (FBS). […] During this incubation, IP-one detection reagents were prepared (38:1:1 lysis buffer:D2:AB-cryptate reagents).
For each compound, data were fit to a four parameter logistic fit (ActivityBase software) and the EC50 was reported as the inflection point of the resulting curve. […] The intrinsic orexin receptor agonist activity of a compound which may be used in the present invention may be determined by these assays.

| EC50 | % of maximum agonist effect (relative to Orexin A) | Compound |
| --- | --- | --- |
| 13.3 nM | 100.0% | CC[C@H](NC(=O)N(CC)C(c1cc(-c2cn3ccnc3c(OC)n2)c(OC)cn1)C(F)(F)F)C(F)(F)F (stereo partly drawn) [Example 2-8, 1-ethyl-1-(2,2,2-trifluoro-1-(5-methoxy-4-(8-methoxyimidazo[1,2-a]pyrazin-6-yl)pyridin-2-yl)ethyl)-3-((S)-1,1,1-trifluorobutan-2-yl)urea] |
| 54.5 nM | 101.1% | CCN(C(=O)N[C@@H](CCC(F)(F)F)C(F)(F)F)C(c1cc(-c2cn3cc(C)nc3c(OC)n2)c(OC)cn1)C1CC1 (stereo partly drawn) [Example 2-16, 1-(cyclopropyl(5-methoxy-4-(8-methoxy-2-methylimidazo[1,2-a]pyrazin-6-yl)pyridin-2-yl)methyl)-1-ethyl-3-((S)-1,1,1,5,5,5-hexafluoropentan-2-yl)urea] |
| 3.2 nM | 101.7% | CCN(C(=O)N[C@@H](CCC(F)(F)F)C(F)(F)F)C(c1cc(-c2cn3cc(C)nc3c(OC)n2)c(OC)cn1)C(F)F (stereo partly drawn) [Example 2-17, 1-(2,2-difluoro-1-(5-methoxy-4-(8-methoxy-2-methylimidazo[1,2-a]pyrazin-6-yl)pyridin-2-yl)ethyl)-1-ethyl-3-((S)-1,1,1,5,5,5-hexafluoropentan-2-yl)urea] |
| 29.9 nM | 99.6% | CCN(C(=O)N[C@@H](COC1CC1)C(F)(F)F)[C@@H](c1cc(-c2cn3cc(C)nc3c(OC)n2)c(OC)cn1)C(F)(F)F [Example 2-18, 3-((S)-3-cyclopropoxy-1,1,1-trifluoropropan-2-yl)-1-ethyl-1-((S)-2,2,2-trifluoro-1-(5-methoxy-4-(8-methoxy-2-methylimidazo[1,2-a]pyrazin-6-yl)pyridin-2-yl)ethyl)urea] |
| 5.7 nM | 102.0% | COc1cnc([C@H](N(C(=O)N[C@@H](CCC(F)(F)F)C(F)(F)F)C2CC2)C(F)(F)F)cc1-c1cn2cc(C)nc2c(OC)n1 [Example 2-19, 1-cyclopropyl-3-((S)-1,1,1,5,5,5-hexafluoropentan-2-yl)-1-(2,2,2-trifluoro-1-(5-methoxy-4-(8-methoxy-2-methylimidazo[1,2-a]pyrazin-6-yl)pyridin-2-yl)ethyl)urea] |
| 341 nM | 99.7% | CC[C@H](CCC(F)(F)F)NC(=O)N(CC(F)F)C(c1cc(-c2cn3ncnc3c(OC)n2)c(OC)cn1)C(F)(F)F (stereo partly drawn) [Example 2-20, 1-(2,2-difluoroethyl)-1-(2,2,2-trifluoro-1-(5-methoxy-4-(8-methoxy-[1,2,4]triazolo[1,5-a]pyrazin-6-yl)pyridin-2-yl)ethyl)-3-((R)-6,6,6-trifluorohexan-3-yl)urea] |
| 0.8 nM | 99.6% | CC[C@H](CCC(F)(F)F)NC(=O)N(CC)[C@@H](c1cc(-c2cn3ccnc3c(OC)n2)c(OC)cn1)C(F)(F)F [Example 2-21, 1-ethyl-1-((S)-2,2,2-trifluoro-1-(5-methoxy-4-(8-methoxyimidazo[1,2-a]pyrazin-6-yl)pyridin-2-yl)ethyl)-3-((R)-6,6,6-trifluorohexan-3-yl)urea] |

Second part, the compound before the results:

| Compound | EC50 | % of maximum agonist effect (relative to Orexin A) |
| --- | --- | --- |
| CCN(C(=O)NC(CC(C)C(F)(F)F)C(F)(F)F)[C@H](C)c1cccc(-c2cn3ccnc3c(OC)n2)c1 (stereo partly drawn) [Example 2-2, 1-ethyl-3-(1,1,1,5,5,5-hexafluoro-4-methylpentan-2-yl)-1-((R)-1-(3-(8-methoxyimidazo[1,2-a]pyrazin-6-yl)phenyl)ethyl)urea] | 3.7 nM | 99.1% |
| CCC(CC(C)C(F)(F)F)NC(=O)N(CC)[C@H](C)c1cccc(-c2cn3ccnc3c(OC)n2)c1 (stereo partly drawn) [Example 2-3, 1-ethyl-1-((R)-1-(3-(8-methoxyimidazo[1,2-a]pyrazin-6-yl)phenyl)ethyl)-3-(6,6,6-trifluoro-5-methylhexan-3-yl)urea] | 4.6 nM | 100.6% |
| CCN(C(=O)NC(C1CC(F)(F)CC(C)(C)O1)C(F)(F)F)[C@@H](c1cc(-c2cn3cc(C)nc3c(OC)n2)c(OC)cn1)C(F)(F)F (stereo partly drawn) [Example 2-4, 3-(1-(4,4-difluoro-6,6-dimethyltetrahydro-2H-pyran-2-yl)-2,2,2-trifluoroethyl)-1-ethyl-1-((S)-2,2,2-trifluoro-1-(5-methoxy-4-(8-methoxy-2-methylimidazo[1,2-a]pyrazin-6-yl)pyridin-2-yl)ethyl)urea] | 4.3 nM | 100.6% |
| CCN(C(=O)NC(C1CCC1)C(F)(F)F)[C@@H](c1cc(-c2cn3ccnc3c(OC)n2)c(OC)cn1)C(F)(F)F (stereo partly drawn) [Example 2-5, 3-(1-cyclobutyl-2,2,2-trifluoroethyl)-1-ethyl-1-((S)-2,2,2-trifluoro-1-(5-methoxy-4-(8-methoxyimidazo[1,2-a]pyrazin-6-yl)pyridin-2-yl)ethyl)urea] | 10.7 nM | 100.7% |
| CCN(C(=O)NC(C1CC1)C(F)(F)F)C(c1cc(-c2cn3ccnc3c(OC)n2)c(OC)cn1)C(F)(F)F (centres unmarked) [Example 2-6, 3-(1-cyclopropyl-2,2,2-trifluoroethyl)-1-ethyl-1-(2,2,2-trifluoro-1-(5-methoxy-4-(8-methoxyimidazo[1,2-a]pyrazin-6-yl)pyridin-2-yl)ethyl)urea] | 12.1 nM | 101.5% |
| CCN(C(=O)NC(C(F)F)C1CC1)[C@@H](c1cc(-c2cn3ccnc3c(OC)n2)c(OC)cn1)C(F)(F)F (stereo partly drawn) [Example 2-7, 3-(1-cyclopropyl-2,2-difluoroethyl)-1-ethyl-1-((S)-2,2,2-trifluoro-1-(5-methoxy-4-(8-methoxyimidazo[1,2-a]pyrazin-6-yl)pyridin-2-yl)ethyl)urea] | 12.5 nM | 100.1% |
| CCN(C(=O)NC1CCC1C(F)(F)F)[C@@H](c1cc(-c2cn3ccnc3c(OC)n2)c(OC)cn1)C(F)(F)F (stereo partly drawn) [Example 2-9, 1-ethyl-1-((S)-2,2,2-trifluoro-1-(5-methoxy-4-(8-methoxyimidazo[1,2-a]pyrazin-6-yl)pyridin-2-yl)ethyl)-3-(2-(trifluoromethyl)cyclobutyl)-urea] | 20.3 nM | 100.0% |
| CCC(NC(=O)N(CC)[C@@H](c1cc(-c2cn3ccnc3c(OC)n2)c(OC)cn1)C(F)(F)F)C(F)F (stereo partly drawn) [Example 2-10, 3-(1,1-difluorobutan-2-yl)-1-ethyl-1-((S)-2,2,2-trifluoro-1-(5-methoxy-4-(8-methoxyimidazo[1,2-a]pyrazin-6-yl)pyridin-2-yl)ethyl)urea] | 22.5 nM | 98.5% |
| CCN(C(=O)NCC(C)C(F)(F)F)[C@@H](c1cc(-c2cn3ccnc3c(OC)n2)c(OC)cn1)C(F)(F)F (stereo partly drawn) [Example 2-11, 1-ethyl-1-((S)-2,2,2-trifluoro-1-(5-methoxy-4-(8-methoxyimidazo[1,2-a]pyrazin-6-yl)pyridin-2-yl)ethyl)-3-(3,3,3-trifluoro-2-methylpropyl)urea] | 30.3 nM | 97.6% |
| CCN(C(=O)N[C@@H](CCC(F)(F)F)C(F)(F)F)C(c1cc(-c2cn3ccnc3c(OC)n2)c2occc2n1)C(F)(F)F (stereo partly drawn) [Example 2-13, 1-ethyl-3-((S)-1,1,1,5,5,5-hexafluoropentan-2-yl)-1-(2,2,2-trifluoro-1-(7-(8-methoxyimidazo[1,2-a]pyrazin-6-yl)furo[3,2-b]pyridin-5-yl)ethyl)urea] | 2.1 nM | 99.9% |
| CCN(C(=O)N[C@@H](CCC(F)(F)F)C(F)(F)F)C(c1cc(-c2cn3ccnc3c(OC)n2)c2nccn2c1)C(F)(F)F (stereo partly drawn) [Example 2-14, 1-ethyl-3-((S)-1,1,1,5,5,5-hexafluoropentan-2-yl)-1-(2,2,2-trifluoro-1-(8-(8-methoxyimidazo[1,2-a]pyrazin-6-yl)imidazo[1,2-a]pyridin-6-yl)ethyl)urea] | 8.7 nM | 100.1% |
| CCN(C(=O)N[C@@H](CCC(F)(F)F)C(F)(F)F)C(c1cnc(SC)c(-c2cc(OC)n3nccc3c2)c1)C(F)(F)F (stereo partly drawn) [Example 2-15, 1-ethyl-3-((S)-1,1,1,5,5,5-hexafluoropentan-2-yl)-1-(2,2,2-trifluoro-1-(5-(7-methoxypyrazolo[1,5-a]pyridin-5-yl)-6-(methylthio)pyridin-3-yl)ethyl)urea] | 24 nM | 98.4% |
